For two compounds, Drug metabolism, Rf and Activity results are on record in ChEMBL document CHEMBL3243959, “In vitro metabolism of a new 4-hydroxycoumarin anticoagulant. Structure of an unusual metabolite” (J Med Chem, 1977).

The source made the active and inactive calls. The calls are words filed in the database; no cut-off is given here.

The nature of series [1]: Drug metabolism in CBRI mouse liver microsomes assessed as formation of 6-[1-Hydroxy-2-oxo-3-[p-(2-chloroethyl)phenyl]hexylidene]-2,4-cyclohexadien-1-one at 5 umol after 30 mins by TLC analysis in presence of NADPH generating system. As to conditions: 0.5 h. The series is classed as ADME. Background: Liver microsomes are a subcellular fraction often used to study metabolism.

A short description of series [2]: Drug metabolism in Wistar albino rat mitochondrial fraction assessed as formation of 6-[1-Hydroxy-2-oxo-3-[p-(2-chloroethyl)phenyl]hexylidene]-2,4-cyclohexadien-1-one at 5 umol after 30 mins by TLC analysis. The series is classed as ADME, Mitochondria. As to conditions: 0.5 h.
The subject of series [3] is Liver microsome. Kind of series: Drug metabolism in Wistar albino rat liver soluble microsomal fraction assessed as formation of 6-[1-Hydroxy-2-oxo-3-[p-(2-chloroethyl)phenyl]hexylidene]-2,4-cyclohexadien-1-one. The series is classed as ADME. As to conditions: microsomes.
Series [4] can be described thus: Retardation factor of the compound in 9:1 v/v benzene-ethyl acetate solvent system by TLC analysis. Type of series: physicochemical.
Series [5] in a line: Drug metabolism in Wistar albino rat liver nuclear fraction assessed as formation of 6-[1-Hydroxy-2-oxo-3-[p-(2-chloroethyl)phenyl]hexylidene]-2,4-cyclohexadien-1-one at 5 umol after 30 mins by TLC analysis. The series is classed as ADME. As to conditions: 0.5 h.
In series [6] the test system is Liver microsome. As to the kind of experiment: Drug metabolism in Wistar albino rat washed liver microsomal fraction assessed as formation of 6-[1-Hydroxy-2-oxo-3-[p-(2-chloroethyl)phenyl]hexylidene]-2,4-cyclohexadien-1-one at 5 umol after 30 mins by TLC analysis. Type of series: ADME. As to conditions: microsomes, 0.5 h.
The subject of series [7] is Liver microsome. As to the kind of experiment: Drug metabolism in Wistar albino rat liver microsomes assessed as formation of 6-[1-Hydroxy-2-oxo-3-[p-(2-chloroethyl)phenyl]hexylidene]-2,4-cyclohexadien-1-one at 5 umol after 30 mins by TLC analysis in presence of nitrogen. The settings on record: 0.5 h. Type of series: ADME.
A short description of series [8]: Retardation factor of the compound in 20:3 v/v benzene-acetic acid solvent system by TLC analysis. The series is classed as physicochemical.
Series [9] in a line: Drug metabolism in Duncan-Hartley guinea pig liver microsomes assessed as formation of 6-[1-Hydroxy-2-oxo-3-[p-(2-chloroethyl)phenyl]hexylidene]-2,4-cyclohexadien-1-one at 5 umol after 30 mins by TLC analysis in presence of NADPH generating system. Type of series: ADME, Cavia porcellus. As to conditions: 0.5 h.
Series [10] concerns Liver microsome. As to the kind of experiment: Drug metabolism in Wistar albino rat liver microsomes assessed as formation of 6-[1-Hydroxy-2-oxo-3-[p-(2-chloroethyl)phenyl]hexylidene]-2,4-cyclohexadien-1-one at 5 umol after 30 mins by TLC analysis in presence of NADP/NAD/NADH/oxygen. The series is classed as ADME. As to conditions: 0.5 h.
A short description of series [11]: Retardation factor of the compound in 9:1 v/v dichloroethane-acetone solvent system by TLC analysis. The series is classed as physicochemical.
Series [12] relates to Liver microsome. Kind of series: Drug metabolism Wistar albino rat liver microsomes assessed as formation of 6-[1-Hydroxy-2-oxo-3-[p-(2-chloroethyl)phenyl]hexylidene]-2,4-cyclohexadien-1-one at 5 umol after 30 mins by TLC analysis in presence of carbon monooxide. Type of series: ADME. As to conditions: 0.5 h.
The nature of series [13]: Drug level in Duncan-Hartley guinea pig liver microsomes treated with clocoumarol at 5 umol after 30 mins by TLC analysis in presence of NADPH generating system. Type of series: ADME, Cavia porcellus. As to conditions: 0.5 h.
The test system of another series is Rattus norvegicus. Kind of series: Anticoagulant activity in rat at 100 x 0.25 mg/kg, ip. Type of series: functional, organism-based. On the set-up: dose 0.25 mg/kg.
The test system of series [14] is Liver microsome. Kind of series: Drug level in Wistar albino rat liver microsomes treated with clocoumarol at 5 umol after 30 mins TLC analysis in presence of NADPH generating system. The series is classed as ADME. The settings on record: 0.5 h.
The test system of series [15] is Liver microsome. Kind of series: Drug level in Wistar albino rat washed liver microsomal fraction treated with clocoumarol at 5 umol after 30 mins by TLC analysis. Type of series: ADME. The settings on record: microsomes, 0.5 h.
Series [16] deals with Liver microsome. As to the kind of experiment: Drug level in Wistar albino rat liver microsomes treated with clocoumarol at 5 umol after 30 mins by TLC analysis in presence of NADP/NAD/NADH/oxygen. The series is classed as ADME. The settings on record: 0.5 h.
The nature of series [17]: Drug level in CBRI mouse liver microsomes treated with clocoumarol at 5 umol after 30 mins by TLC analysis in presence of NADPH generating system. As to conditions: 0.5 h. The series is classed as ADME.

On to `CCCC(c1ccc(CCCl)cc1)c1c(O)c2ccccc2oc1=O` (stereo unspecified) [CLOCOUMAROL], for which the Drug metabolism entry in series [1] is given as “metabolite_detected”; in [2] it was “metabolite_notdetected”; with Liver microsome [3], “metabolite_notdetected”; in series [5], “metabolite_notdetected”; in the series with Liver microsome [6], “metabolite_detected”; in the series with Liver microsome [7] it was “metabolite_notdetected”. Further, the Drug metabolism result (in series [9]; in the series on Liver microsome [10]) was “metabolite_detected” in each case. The Rf in [4] was found to be 0.33; in [8], 0.67; in series [11], 0.53.

`CCCC(C(=O)/C(O)=C1\C=CC=CC1=O)c1ccc(CCCl)cc1` (stereo unspecified): the Drug metabolism result is reported as “metabolite_notdetected” with Liver microsome [12]; “metabolite_detected” in [13]; “metabolite_detected” with Liver microsome [14]; “metabolite_detected” with Liver microsome [15]; “metabolite_detected” in the series on Liver microsome [16]; “metabolite_detected” in [17]. In addition, in the series on Rattus norvegicus, the outcome was inactive. The Rf in series [4] was 0.44; in [8], 0.74; in [11], 0.61.
